Assay results published in ChEMBL document CHEMBL1687775, “Bioavailability and population pharmacokinetics of voriconazole in lung transplant recipients” (Antimicrob Agents Chemother, 2010).

Experiments:
Type in all cases: ADME, organism-based
[1] = Plasma concentration in lung transplant recipient at 6 mg/kg, iv twice a day administered immediately post transplant as 2 hr infusion followed by 200 mg, po bid for 3 months by HPLC analysis; set-up: dose 6 mg/kg, route oral; settings: human
[2] = Tmax in lung transplant recipient at 6 mg/kg, iv twice a day administered immediately post transplant as 2 hr infusion followed by 200 mg, po bid for 3 months by HPLC analysis; set-up: dose 6 mg/kg, route oral; settings: human, in vivo
[3] = Cmax in lung transplant recipient at 6 mg/kg, iv twice a day administered immediately post transplant as 2 hr infusion; set-up: dose 6 mg/kg, route intravenous; settings: human, in vivo
[4] = Cmax in lung transplant recipient at 6 mg/kg, iv twice a day administered immediately post transplant as 2 hr infusion followed by 200 mg, po bid for 3 months by HPLC analysis; set-up: dose 6 mg/kg, route oral; settings: human, in vivo

## C[C@@H](c1ncncc1F)[C@](O)(Cn1cncn1)c1ccc(F)cc1F [VORICONAZOLE]
[1]
  concentration at 2 h: 1000 ng/mL
[2]
  Tmax: 1.9 h
[3]
  Cmax: 3600 ng/mL
[4]
  Cmax: 5900 ng/mL
